Test results published in patent publication US20050106635A1, “Compositions and methods for regulating thyroid hormone metabolism and cholesterol and lipid metabolism via the nuclear receptor car” (priority 2002, published 2005).

Columns and labels:
[1] = tested on: genes involved in hepatic thyroid hormone conjugation and transport; experiment: RTQ-PCR of thyroid hormone metabolism genes in liver of TCPOBOP-treated mice; format: in vivo, mouse; settings: 1 mg/kg i.p.
[2] = tested on: T4; settings: rats; TCPOBOP at high doses; cited from earlier work
[3] = tested on: mouse sulfotransferase genes; experiment: Northern blot analysis of sulfotransferase mRNAs in liver of TCPOBOP-treated mice; format: in vivo; settings: 1 mg/kg i.p.
[4] = tested on: mouse liver genes differentially expressed in response to CAR activation; experiment: Affymetrix GeneChip analysis of mouse liver genes differentially expressed after TCPOBOP treatment; format: in vivo
Experimental: A global analysis of mouse liver genes differentially expressed in response to CAR activation was performed. Changes in mRNA steady state levels were assessed using AFFYMETRIX® chip technology. AFFYMETRIX® GeneChip murine genome assays (Mu11k set), representing greater than 13,000 full-length genes and EST clusters, were used. The primary sequence sources for this set were combined Unigene and TIGR databases. […] TCPOBOP is a potent and selective activator of mouse CAR and a useful chemical tool for in vivo differential gene expression studies.
(§1) In these experiments, three mice were treated with 1 mg/kg TCPOBOP in 5% dimethyl sulfoxide (DMSO) and corn oil, intraperitoneally. Control mice (n—3) received vehicle alone. Each mouse received two injections at 24 hour intervals. Livers were harvested after the second injection. Thus, total treatment time was 28 hours. Total mRNA was isolated from the livers using the Trizol method and probes for hybridization to the Affymetrix chips were prepared from the total mRNA. Results were analyzed by Affymetrix microarray Suite version 4.0 software.

[5] = tested on: mouse sulfotransferase genes; experiment: Effect of TCPOBOP on expression of the known mouse sulfotransferase genes (method not specified); format: in vivo; settings: mice, liver
Experimental: as §1
Since sulfotransferase activity is important in thyroid metabolism, the effect of TCPOBOP on expression of all of the known mouse sulfotransferase genes was examined. The sulfotransferase set examined included N-SULT, SULT-X1, SULT-X2, aryl sulfotransferase, phenyl sulfotransferase, hydroxysteroid sulfotransferase, SULT-B1, and SUTL1E1. Three of these eight sulfotransferase genes were induced by TCPOBOP. […] Sulfotransferase activity coupled with deiodinase type I activity caused an increased proportion of T4 to be converted to rT3 rather than T3.
The expression of several genes examined in the TCPOBOP study was also examined. Of the sulfotransferase genes, SULT-X1, N-SULT, SULT 1E1, SULT 1B1 and aryl sulfotransferase were examined.

[6] = mice, 1 mg/kg i.p., two injections, liver, 28 hours, Affymetrix chip data

## Clc1cnc(Oc2ccc(Oc3ncc(Cl)cc3Cl)cc2)c(Cl)c1 [TCPOBOP, 1,4-bis-[2,-(3,5-dichloropyridyloxy)] benzene]
[1]
  expression of the basolateral transporter mrp3: increased the expression
[1]; RTQ-PCR
  GST mu1-1 increase: 2.7 fold
  GST mu5-5 increase: 4.7 fold
  GST theta 1-1 increase: 2.7 fold
  GST-Y increase: 7.5 fold
  SULT-X2 increase: 30 fold
  UDP-glucuronysyl transferase 1A1 increase: 1.6 fold
[2]
  circulating levels of T4: decreased circulating levels of T4
  glucuronidation of T4: increase in glucuronidation of T4
[3]
  N-SULT increase: 11.5 fold
  SULT-X1 increase: 10.0 fold
[4]; mice, 1 mg/kg i.p., two injections at 24 hour intervals, liver, total treatment time 28 hours
  number of genes (of more than 13,000) displaying a 2-fold or greater change in expression: 264 genes
[4]; [6]
  CYP2B10 mRNA upregulation in expression: 40 fold
  CYP3A1 mRNA upregulation in expression: 20 fold
  decrease in the gene encoding the Na+/K+ transporting ATPase: greater than 2 fold
[4]; mouse liver, in vivo differential gene expression study
  activation of the CAR nuclear receptor: Selective and potent activation
[5]
  SULT-1B1 mRNA induction: not induced
  SULT-1E1 mRNA induction: not induced
  aryl sulfotransferase mRNA induction: not induced
